From the NIST ThermoML archive (doi:10.1016/j.jct.2018.11.011)
“And” between values parts separate entries of the source, which are not always exact repeats. Equal entries are not always repeated. ± gives the expanded uncertainty stated by the source.

Test: molar heat capacity at constant pressure
Settings: 101.33 kPa

O=C([O][Sb]([c]1ccccc1)([c]1ccccc1)([c]1ccccc1)[c]1ccccc1)c1ccccc1 [tetraphenylantimony benzoate]
Settings | molar heat capacity at constant pressure
175 K, Crystal, Small (less than 1 g) adiabatic calorimetry | 350 ± 1.8 J/K/mol
179.52 K, Crystal, Small (less than 1 g) adiabatic calorimetry | 354.2 ± 1.8 J/K/mol
180 K, Crystal, Small (less than 1 g) adiabatic calorimetry | 355.4 ± 1.8 J/K/mol
182.77 K, Crystal, Small (less than 1 g) adiabatic calorimetry | 359.3 ± 1.8 J/K/mol
187 K, Crystal, Small (less than 1 g) adiabatic calorimetry | 368 ± 1.9 J/K/mol
190 K, Crystal, Small (less than 1 g) adiabatic calorimetry | 372 ± 1.9 J/K/mol
193.46 K, Crystal, Small (less than 1 g) adiabatic calorimetry | 377.4 ± 1.9 J/K/mol
196.73 K, Crystal, Small (less than 1 g) adiabatic calorimetry | 382.6 ± 2 J/K/mol
200 K, Crystal, Small (less than 1 g) adiabatic calorimetry | 387 ± 2 J/K/mol and 387.6 ± 2 J/K/mol
203.22 K, Crystal, Small (less than 1 g) adiabatic calorimetry | 393.1 ± 2 J/K/mol
206.89 K, Crystal, Small (less than 1 g) adiabatic calorimetry | 398.7 ± 2.1 J/K/mol
210 K, Crystal, Small (less than 1 g) adiabatic calorimetry | 402 ± 2.1 J/K/mol
212.74 K, Crystal, Small (less than 1 g) adiabatic calorimetry | 408.9 ± 2.1 J/K/mol
216.41 K, Crystal, Small (less than 1 g) adiabatic calorimetry | 416 ± 2.2 J/K/mol
218 K, Crystal, Small (less than 1 g) adiabatic calorimetry | 417 ± 2.2 J/K/mol
220 K, Crystal, Small (less than 1 g) adiabatic calorimetry | 420.9 ± 2.2 J/K/mol
221.7 K, Crystal, Small (less than 1 g) adiabatic calorimetry | 424.2 ± 2.2 J/K/mol
226.59 K, Crystal, Small (less than 1 g) adiabatic calorimetry | 431.9 ± 2.2 J/K/mol
230.26 K, Crystal, Small (less than 1 g) adiabatic calorimetry | 438 ± 2.2 J/K/mol
233.93 K, Crystal, Small (less than 1 g) adiabatic calorimetry | 444.7 ± 2.2 J/K/mol
237.6 K, Crystal, Small (less than 1 g) adiabatic calorimetry | 451.8 ± 2.3 J/K/mol
240 K, Crystal, Small (less than 1 g) adiabatic calorimetry | 455.1 ± 2.3 J/K/mol
241.26 K, Crystal, Small (less than 1 g) adiabatic calorimetry | 457.5 ± 2.3 J/K/mol
244.92 K, Crystal, Small (less than 1 g) adiabatic calorimetry | 464.4 ± 2.3 J/K/mol
248.56 K, Crystal, Small (less than 1 g) adiabatic calorimetry | 469.4 ± 2.4 J/K/mol
252.2 K, Crystal, Small (less than 1 g) adiabatic calorimetry | 476.9 ± 2.4 J/K/mol
255.84 K, Crystal, Small (less than 1 g) adiabatic calorimetry | 483.2 ± 2.4 J/K/mol
259.46 K, Crystal, Small (less than 1 g) adiabatic calorimetry | 489.4 ± 2.5 J/K/mol
260 K, Crystal, Small (less than 1 g) adiabatic calorimetry | 491.6 ± 2.5 J/K/mol
260.21 K, Crystal, Small (less than 1 g) adiabatic calorimetry | 492.1 ± 2.5 J/K/mol
263.38 K, Crystal, Small (less than 1 g) adiabatic calorimetry | 496.3 ± 2.5 J/K/mol
266.99 K, Crystal, Small (less than 1 g) adiabatic calorimetry | 503.4 ± 2.6 J/K/mol
270.59 K, Crystal, Small (less than 1 g) adiabatic calorimetry | 511.1 ± 2.6 J/K/mol
273.15 K, Crystal, Small (less than 1 g) adiabatic calorimetry | 514.4 ± 2.6 J/K/mol
274.19 K, Crystal, Small (less than 1 g) adiabatic calorimetry | 516.9 ± 2.6 J/K/mol
277.77 K, Crystal, Small (less than 1 g) adiabatic calorimetry | 523.1 ± 2.7 J/K/mol
280 K, Crystal, Small (less than 1 g) adiabatic calorimetry | 527.1 ± 2.7 J/K/mol
281.34 K, Crystal, Small (less than 1 g) adiabatic calorimetry | 529.8 ± 2.7 J/K/mol
284.91 K, Crystal, Small (less than 1 g) adiabatic calorimetry | 536.8 ± 2.7 J/K/mol
288.45 K, Crystal, Small (less than 1 g) adiabatic calorimetry | 544.3 ± 2.7 J/K/mol
291.98 K, Crystal, Small (less than 1 g) adiabatic calorimetry | 551.8 ± 2.8 J/K/mol
295.51 K, Crystal, Small (less than 1 g) adiabatic calorimetry | 558.6 ± 2.8 J/K/mol
298.15 K, Crystal, Small (less than 1 g) adiabatic calorimetry | 564.4 ± 2.8 J/K/mol
299.02 K, Crystal, Small (less than 1 g) adiabatic calorimetry | 565.4 ± 2.8 J/K/mol
300 K, Crystal, Small (less than 1 g) adiabatic calorimetry | 568.4 ± 2.9 J/K/mol
302.51 K, Crystal, Small (less than 1 g) adiabatic calorimetry | 572.4 ± 2.9 J/K/mol
305.98 K, Crystal, Small (less than 1 g) adiabatic calorimetry | 579.5 ± 2.9 J/K/mol
309.1 K, Crystal, Small (less than 1 g) adiabatic calorimetry | 585.3 ± 3 J/K/mol
312.86 K, Crystal, Small (less than 1 g) adiabatic calorimetry | 594.4 ± 3 J/K/mol
316.25 K, Crystal, Small (less than 1 g) adiabatic calorimetry | 601.1 ± 3 J/K/mol
319.65 K, Crystal, Small (less than 1 g) adiabatic calorimetry | 610.9 ± 3.1 J/K/mol
320 K, Crystal, Small (less than 1 g) adiabatic calorimetry | 611.4 ± 3.1 J/K/mol
321.5 K, Crystal, DSC | 615 ± 33 J/K/mol
323.03 K, Crystal, Small (less than 1 g) adiabatic calorimetry | 617.6 ± 3.1 J/K/mol
324.5 K, Crystal, DSC | 621 ± 33 J/K/mol
326.38 K, Crystal, Small (less than 1 g) adiabatic calorimetry | 625.6 ± 3.2 J/K/mol
327.5 K, Crystal, DSC | 627 ± 33 J/K/mol
329.73 K, Crystal, Small (less than 1 g) adiabatic calorimetry | 632 ± 3.2 J/K/mol
330.5 K, Crystal, DSC | 634 ± 34 J/K/mol
333.07 K, Crystal, Small (less than 1 g) adiabatic calorimetry | 638.8 ± 3.2 J/K/mol
333.5 K, Crystal, DSC | 639 ± 34 J/K/mol
336.5 K, Crystal, DSC | 645 ± 34 J/K/mol
337.11 K, Crystal, Small (less than 1 g) adiabatic calorimetry | 646.4 ± 3.2 J/K/mol
339.5 K, Crystal, DSC | 649 ± 35 J/K/mol
340 K, Crystal, Small (less than 1 g) adiabatic calorimetry | 650 ± 26 J/K/mol
342.5 K, Crystal, DSC | 656 ± 35 J/K/mol
345.5 K, Crystal, DSC | 660 ± 35 J/K/mol
348.5 K, Crystal, DSC | 666 ± 36 J/K/mol
351.5 K, Crystal, DSC | 671 ± 36 J/K/mol
354.5 K, Crystal, DSC | 678 ± 37 J/K/mol
357.5 K, Crystal, DSC | 683 ± 37 J/K/mol
360 K, Crystal, Small (less than 1 g) adiabatic calorimetry | 688 ± 27 J/K/mol
360.5 K, Crystal, DSC | 689 ± 37 J/K/mol
368.5 K, Crystal, DSC | 709 ± 38 J/K/mol
377.2 K, Crystal, DSC | 731 ± 39 J/K/mol
380 K, Crystal, Small (less than 1 g) adiabatic calorimetry | 736 ± 30 J/K/mol
387.3 K, Crystal, DSC | 755 ± 41 J/K/mol
397.5 K, Crystal, DSC | 780 ± 42 J/K/mol
400 K, Crystal, Small (less than 1 g) adiabatic calorimetry | 788 ± 32 J/K/mol
402.5 K, Crystal, DSC | 793 ± 42 J/K/mol
405.5 K, Crystal, DSC | 800 ± 42 J/K/mol
408.5 K, Crystal, DSC | 806 ± 43 J/K/mol
411.5 K, Crystal, DSC | 830 ± 47 J/K/mol
420 K, Crystal, Small (less than 1 g) adiabatic calorimetry | 800 ± 33 J/K/mol
437.5 K, Crystal, Small (less than 1 g) adiabatic calorimetry | 873 ± 33 J/K/mol
437.5 K, Liquid, DSC | 973 ± 50 J/K/mol
440 K, Liquid, DSC | 973 ± 50 J/K/mol
445.5 K, Liquid, DSC | 989 ± 50 J/K/mol
447.5 K, Liquid, DSC | 981 ± 50 J/K/mol
450.5 K, Liquid, DSC | 973 ± 50 J/K/mol
453.5 K, Liquid, DSC | 973 ± 50 J/K/mol
456.5 K, Liquid, DSC | 973 ± 50 J/K/mol
459.5 K, Liquid, DSC | 973 ± 50 J/K/mol
460 K, Liquid, DSC | 973 ± 50 J/K/mol
462.5 K, Liquid, DSC | 973 ± 50 J/K/mol
465.5 K, Liquid, DSC | 973 ± 50 J/K/mol
468.5 K, Liquid, DSC | 973 ± 50 J/K/mol
471.5 K, Liquid, DSC | 973 ± 50 J/K/mol
474.5 K, Liquid, DSC | 973 ± 50 J/K/mol
477.5 K, Liquid, DSC | 973 ± 50 J/K/mol
480 K, Liquid, DSC | 973 ± 50 J/K/mol
480.5 K, Liquid, DSC | 973 ± 50 J/K/mol
